Measured values as given in patent US6245917A, “Crystalline sodium phenytoin monohydrate” (Warner-Lambert Company, priority 1999, dated 2001).

Experiments:
Format in all cases: physicochemical
[1] = Weight change under controlled humidity conditions, first study (SPM made by the toluene slurry)
Source text: Study of weight change under controlled humidity conditions, samples were placed in open vials, which were placed in closed controlled-humidity jars. Relative humidities were controlled using saturated aqueous salt solutions: 58% RH, NaBr; 75% RH, (NH4)2 SO4; 76%, sodium acetate; 84% RH, KBr. Water uptake/loss characteristics of SPM and SPA were compared. Samples were kept at ambient temperature under various relative humidities (RHs) and were periodically weighed. […] The fact that SPM loses significant mass under even high humidity conditions is inconsistent with the loss of only water.

[2] = Repeated water uptake study with solvent-free SPM (dichloromethane preparation)
Source text: Study of weight change under controlled humidity conditions, samples were placed in open vials, which were placed in closed controlled-humidity jars. Relative humidities were controlled using saturated aqueous salt solutions: 58% RH, NaBr; 75% RH, (NH4)2 SO4; 76%, sodium acetate; 84% RH, KBr.
A possible cause of the observed weight loss is that some reaction solvent (toluene in this case) from the preparation of SPM remained on the solid and evaporated in the humidity jars. To test this theory, it was decided to prepare SPM, show it to be solvent-free, and repeat the water uptake studies. Dichloromethane was chosen as the organic solvent for the preparation rather than toluene because its lower boiling point should allow it to be removed from the solid more easily and completely. SPM was made by stirring a slurry of SPA and one equivalent of water in dichloromethane for 2 days, then isolation by filtration and air-drying of the solid SPM.
The remainder of the SPM sample was allowed to dry in an open jar under ambient conditions for about 1 week. It was then characterized by XRPD elemental analysis, and Karl Fischer (KF) analysis. The sample appears to be pure SPM containing very little, if any, residual solvent.
Both SPM and SPA increased in weight about 20% when equilibrium was reached (constant weight) at each humidity utilized. The samples were analyzed by XRPD after completion of the water uptake experiments. […] The nature of this form has not been determined.

[3] = DSC and TGA thermal analyses; conditions: TGA, transitions at 364° C. and 409° C.
Procedure: Differential scanning calorimetry (DSC) experiments were performed on a Dupont DSC 2000 and thermogravimetric analyses (TGA) were performed on a Dupont TGA 2000. Nitrogen was used as the purge gas and heating rates were 10° C./minute. Standards were run prior to sample analyses; Sn for DSC and calcium oxalate for TGA.
Both SPM and SPA were analyzed by x-ray powder diffraction (XRPD), infrared (IR) spectroscopy, solid-state nuclear magnetic resonance (SSNMR) spectroscopy, differential scanning calorimetry (DSC) and thermogravimetric analysis (TGA). The XRPD patterns of SPM and SPA are quite different and distinguishable. While the IR and SSNMR spectra of SPM and SPA are different, the differences are subtle. SPM and SPA behave quite differently on both DSC and TGA thermal analyses. SPA undergoes endothermic transitions at 364° C. and 409° C. that are accompanied by a weight loss of 72%.

O=C1NC(=O)C(c2ccccc2)(c2ccccc2)N1 [SPA, sodium phenytoin anhydrate, reference compound]
Percent change based on average of final two weights ([1]; 58% RH): +24% | Percent change based on average of final two weights ([1]; 75% RH): +25% | Percent change based on average of final two weights ([1]; 84% RH): +25% | weight gained on reaching constant weight ([1]; all humidities utilized, ambient temperature): 25% | Percent change based on average of final two weights ([2]; 58% RH): +19% | sample weight ([2]; 58% RH, day 0 (starting weight)): 1.5087 g | change in starting weight ([2]; 58% RH, day 1): +0.0263 g | sample weight ([2]; 58% RH, day 1): 1.5350 g | change in starting weight ([2]; 58% RH, day 2): +0.0510 g | sample weight ([2]; 58% RH, day 2): 1.5597 g | change in starting weight ([2]; 58% RH, day 3): +0.0793 g | sample weight ([2]; 58% RH, day 3): 1.5880 g | change in starting weight ([2]; 58% RH, day 4): +0.1011 g | sample weight ([2]; 58% RH, day 4): 1.6098 g | change in starting weight ([2]; 58% RH, day 5): +0.1111 g | sample weight ([2]; 58% RH, day 5): 1.6198 g | change in starting weight ([2]; 58% RH, day 6): +0.1208 g | sample weight ([2]; 58% RH, day 6): 1.6295 g | change in starting weight ([2]; 58% RH, day 7): +0.1333 g | sample weight ([2]; 58% RH, day 7): 1.6420 g | change in starting weight ([2]; 58% RH, day 8): 0.1487 g | change in starting weight ([2]; 58% RH, day 10): +0.1797 g | change in starting weight ([2]; 58% RH, day 12): +0.2166 g | sample weight ([2]; 58% RH, day 12): 1.7253 g | change in starting weight ([2]; 58% RH, day 13): +0.2250 g | sample weight ([2]; 58% RH, day 13): 1.7337 g | change in starting weight ([2]; 58% RH, day 14): +0.2338 g | sample weight ([2]; 58% RH, day 14): 1.7425 g | change in starting weight ([2]; 58% RH, day 15): +0.2445 g | sample weight ([2]; 58% RH, day 15): 1.7532 g | change in starting weight ([2]; 58% RH, day 16): +0.2531 g | sample weight ([2]; 58% RH, day 16): 1.7618 g | change in starting weight ([2]; 58% RH, day 17): +0.2593 g | sample weight ([2]; 58% RH, day 17): 1.7680 g | change in starting weight ([2]; 58% RH, day 21): +0.2773 g | sample weight ([2]; 58% RH, day 21): 1.7860 g | change in starting weight ([2]; 58% RH, day 23): +0.2818 g | sample weight ([2]; 58% RH, day 23): 1.7905 g | change in starting weight ([2]; 58% RH, day 26): +0.2818 g | Percent change based on average of final two weights ([2]; 75% RH): +21% | sample weight ([2]; 75% RH, day 0 (starting weight)): 1.5037 g | change in starting weight ([2]; 75% RH, day 1): +0.0581 g | sample weight ([2]; 75% RH, day 1): 1.5618 g | change in starting weight ([2]; 75% RH, day 2): +0.1166 g | sample weight ([2]; 75% RH, day 2): 1.6203 g | change in starting weight ([2]; 75% RH, day 3): +0.1625 g | sample weight ([2]; 75% RH, day 3): 1.6662 g | change in starting weight ([2]; 75% RH, day 4): +0.2103 g | sample weight ([2]; 75% RH, day 4): 1.7140 g | change in starting weight ([2]; 75% RH, day 5): +0.2501 g | sample weight ([2]; 75% RH, day 5): 1.7538 g | change in starting weight ([2]; 75% RH, day 6): +0.2825 g | sample weight ([2]; 75% RH, day 6): 1.7862 g | change in starting weight ([2]; 75% RH, day 7): +0.3054 g | sample weight ([2]; 75% RH, day 7): 1.8091 g | change in starting weight ([2]; 75% RH, day 8): +0.3152 g | change in starting weight ([2]; 75% RH, day 10): +0.3165 g | change in starting weight ([2]; 75% RH, day 12): +0.3197 g | sample weight ([2]; 75% RH, day 12): 1.8234 g | change in starting weight ([2]; 75% RH, day 13): +0.3171 g | sample weight ([2]; 75% RH, day 13): 1.8208 g | change in starting weight ([2]; 75% RH, day 14): +0.3152 g | sample weight ([2]; 75% RH, day 14): 1.8189 g | change in starting weight ([2]; 75% RH, day 15): +0.3146 g | sample weight ([2]; 75% RH, day 15): 1.8183 g | change in starting weight ([2]; 75% RH, day 16): +0.3139 g | sample weight ([2]; 75% RH, day 16): 1.8176 g | change in starting weight ([2]; 75% RH, day 17): +0.3117 g | sample weight ([2]; 75% RH, day 17): 1.8154 g | Percent change based on average of final two weights ([2]; 84% RH): +22% | sample weight ([2]; 84% RH, day 0 (starting weight)): 1.5023 g | change in starting weight ([2]; 84% RH, day 1): +0.0712 g | sample weight ([2]; 84% RH, day 1): 1.5735 g | change in starting weight ([2]; 84% RH, day 2): +0.1330 g | sample weight ([2]; 84% RH, day 2): 1.6353 g | change in starting weight ([2]; 84% RH, day 3): +0.1952 g | sample weight ([2]; 84% RH, day 3): 1.6975 g | change in starting weight ([2]; 84% RH, day 4): +0.2498 g | sample weight ([2]; 84% RH, day 4): 1.7521 g | change in starting weight ([2]; 84% RH, day 5): +0.2949 g | sample weight ([2]; 84% RH, day 5): 1.7972 g | change in starting weight ([2]; 84% RH, day 6): +0.3169 g | sample weight ([2]; 84% RH, day 6): 1.8192 g | change in starting weight ([2]; 84% RH, day 7): +0.3275 g | sample weight ([2]; 84% RH, day 7): 1.8298 g | change in starting weight ([2]; 84% RH, day 8): +0.3301 g | change in starting weight ([2]; 84% RH, day 12): +0.3322 g | sample weight ([2]; 84% RH, day 12): 1.8345 g | change in starting weight ([2]; 84% RH, day 13): +0.3288 g | sample weight ([2]; 84% RH, day 13): 1.8311 g | change in starting weight ([2]; 84% RH, day 14): +0.3260 g | sample weight ([2]; 84% RH, day 14): 1.8283 g | change in starting weight ([2]; 84% RH, day 15): +0.3255 g | sample weight ([2]; 84% RH, day 15): 1.8278 g | change in starting weight ([2]; 84% RH, day 16): +0.3249 g | sample weight ([2]; 84% RH, day 16): 1.8272 g | change in starting weight ([2]; 84% RH, day 17): +0.3225 g | sample weight ([2]; 84% RH, day 17): 1.8248 g | weight loss accompanying the endothermic transitions [3]: 72%
